Source: US20160100579A1, “NEMATICIDAL N-(2-SUBSTITUTED 2-PHENYLETHYL)CARBOXAMIDES AND N-(2-SUBSTITUTED 2-PHENYLETHYL)-THIOCARBOXAMIDES” (priority 2013, published 2016)
Where two headings read alike, the source gives them in different places.

Columns and labels:
Cooperia curticei = format: in vivo; conditions: after 5 days, 100% = all larvae killed
Procedure: Cooperia curticei—Test (COOPCU)
(§1) Solvent: dimethyl sulfoxide
(§2) To produce a suitable preparation of active compound, 10 mg of active compound are dissolved in 0.5 ml solvent, and the concentrate is diluted with “Ringer's solution” to the desired concentration.
Approximately 40 nematode larvae (Cooperia curticei) are transferred into a test tube containing the compound solution.
After 5 days percentage of larval mortality is recorded. 100% efficacy means all larvae are killed; 0% efficacy means no larvae are killed.

[1] = Measurement of log P values by HPLC on reversed phase columns (EEC directive 79/831 Annex V.A8; methods [a] pH 2.3, [b] pH 2.7, [c] pH 7.8); format: physicochemical; conditions: for chromatographic logP: reversed phase HPLC column
Procedure: Measurement of log P-values:
Measurement of log P values was performed according EEC directive 79/831 Annex V.A8 by HPLC (High Performance Liquid Chromatography) on reversed phase columns with the following methods:
^[a] Measurement was done at pH 2.3 with 0.1% phosphoric acid and acetonitrile as eluent with a linear gradient from 10% acetonitrile to 95% acetonitrile.
^[b] measurement of LC-MS was done at pH 2.7 with 0.1% formic acid in water and with acetonitrile (contains 0.1% formic acid) as eluent with a linear gradient from 10% acetonitrile to 95% acetonitrile.
^[c] Measurement with LC-MS was done at pH 7.8 with 0.001 molar ammonium hydrogen carbonate solution in water as eluent with a linear gradient from 10% acetonitrile to 95% acetonitrile.
Calibration was done with not branched alkan2-ones (with 3 to 16 carbon atoms) with known log P-values (measurement of log P values using retention times with linear interpolation between successive alkanones).. lambda-maX-values were determined using UV-spectra from 200 nm to 400 nm and the peak values of the chromatographic signals.

Haemonchus contortus = Haemonchus contortus - Test (HAEMCO); format: in vivo; conditions: after 5 days, 100% = all larvae killed
Procedure: Haemonchus contortus—Test (HAEMCO)
as §1, §2
Approximately 40 larvae of the red stomach worm (Haemonchus contortus) are transferred into a test tube containing compound solution.
After 5 days percentage of larval mortality is recorded. 100% efficacy means all larvae are killed, 0% efficacy means no larvae are killed.

Meloidogyne incognita = Meloidogyne incognita - test (MELGIN); format: in vivo; conditions: 20 ppm; salad seedlings in sand; after 14 days; 100% = no galls found
Procedure: Meloidogyne incognita—test (MELGIN)
Solvent: 125.0 parts by weight of acetone
To produce a suitable preparation of active compound, 1 part by weight of active compound is mixed with the stated amount of solvent, and the concentrate is diluted with water to the desired concentration.
Vessels are filled with sand, a solution of the active ingredient, a suspension containing eggs and larvae of the southern root-knot nematode (Meloidogyne incognita) and salad seeds. The salad seeds germinate and the seedlings grow. Galls develop in the roots.
After 14 days the nematicidal activity is determined on the basis of the percentage of gall formation. 100% means that no galls were found; 0% means the number of galls found on the roots of the treated plants was equal to that in untreated control plants.

[2] = method [c]: LC-MS at pH 7.8, 0.001 molar ammonium hydrogen carbonate in water / acetonitrile
[3] = method [b]: LC-MS, pH 2.7, 0.1% formic acid in water / acetonitrile
[4] = method [b]: LC-MS at pH 2.7, 0.1% formic acid in water / acetonitrile
[5] = method [c]: LC-MS, pH 7.8, 0.001 molar ammonium hydrogen carbonate / acetonitrile
[6] = method [a]: HPLC, pH 2.3, 0.1% phosphoric acid / acetonitrile

Compound | log P [1, 2] | logP [1, 3] | nematicidal activity (percentage of gall formation) (Meloidogyne incognita) | log P [1, 4] | other results
COC(c1ccc(Cl)cc1)C(C)NC(=O)c1ccccc1Cl (centres unmarked) [Compound 130] | 3.21^[c] |  |  |  | activity (efficacy: larval mortality) (Cooperia curticei; 20 ppm): 80%; activity (efficacy: larval mortality) (Haemonchus contortus; 20 ppm): 80%
COC(c1ccc(Cl)cc1)C(C)NC(=O)c1ccoc1I (centres unmarked) [Compound 64] |  | 3.28^[b] |  |  | activity (efficacy: larval mortality) (Cooperia curticei; 20 ppm): 80%; activity (efficacy: larval mortality) (Haemonchus contortus; 20 ppm): 100%
CCOC(c1ccc(Cl)cc1Cl)C(C)NC(=O)c1cccnc1C(F)(F)F (centres unmarked) [Compound 108] |  | 3.92^[b] | 100% |  | 
COC(c1ccc(Cl)cc1Cl)C(C)NC(=O)c1cccnc1C(F)(F)F (centres unmarked) [Compound 39] |  |  | 90% |  | activity (efficacy: larval mortality) (Haemonchus contortus; 100 ppm): 100%
COC(CNC(=O)c1cccnc1C(F)(F)F)c1ccc(Cl)cc1Cl (centres unmarked) [Compound 104] |  | 3.11^[b] | 90% |  | 
COC(c1ccc(Cl)cc1Cl)C1(NC(=O)c2nccnc2C(F)(F)F)CC1 (centres unmarked) [Compound 99] |  | 3.61^[b] |  |  | activity (efficacy: larval mortality) (Cooperia curticei; 20 ppm): 100%
COC(c1ccccc1Cl)C(C)NC(=O)c1ccccc1Cl (centres unmarked) [Compound 156] | 3.26^[c]; |  | 90% | 3.74^[b] | 
COC(c1ccccc1Cl)C(C)NC(=O)c1ccsc1I (centres unmarked) [Compound 203] | 3.53^[c]; |  |  | 3.53^[b] | activity (efficacy: larval mortality) (Cooperia curticei; 20 ppm): 80%; activity (efficacy: larval mortality) (Haemonchus contortus; 20 ppm): 80%
COC(c1ccc(Cl)cc1Cl)C1(NC(=O)c2nccnc2Cl)CC1 (centres unmarked) [Compound 210, 3-chloro-N-{1-[(2,4-dichlorophenyl)(methoxy)methyl]cyclopropyl}pyrazine-2-carboxamide] |  |  | 100% |  | chromatographic logP ([1]; acid HPLC method, reversed phase, read-out: Log P acid): 3.24; chromatographic logP ([1]; method [b]: LC-MS at pH 2.7, 0.1% formic acid in water / acetonitrile, read-out: log P): 3.24; chromatographic logP ([1]; method [c]: LC-MS at pH 7.8, 0.001 molar ammonium hydrogen carbonate in water / acetonitrile, read-out: log P): 3.19
CCOC(c1ccc(Cl)cc1Cl)C(C)NC(=O)c1ccccc1C(F)(F)F (centres unmarked) [Compound 194] | 4.44^[c]; |  | 90% | 4.50[b] | 
COC(c1ccc(Cl)cc1Cl)C1(NC(=O)c2cccnc2C(F)(F)F)CC1 (centres unmarked) [Compound 100] |  | 3.37^[b] | 90% |  | 
CCOC(c1ccc(Cl)cc1Cl)C(C)NC(=O)c1ccsc1I (centres unmarked) [Compound 205] | 4.60^[c]; |  |  | 4.63^[b] | activity (efficacy: larval mortality) (Cooperia curticei; 20 ppm): 100%; activity (efficacy: larval mortality) (Haemonchus contortus; 20 ppm): 90%
COC(c1ccccc1Cl)C(C)NC(=O)c1c(F)cccc1F (centres unmarked) [Compound 144] | 3.08^[c]; |  | 90% | 3.11^[b] | 
COC(c1ccc(Cl)cc1Cl)C(C)NC(=O)c1cn(C)nc1C(F)F (centres unmarked) [Compound 12] |  |  | 100% |  | activity (efficacy: larval mortality) (Haemonchus contortus; 100 ppm): 90%
COC(c1ccccc1Cl)C(C)NC(=O)c1nccnc1Cl (centres unmarked) [Compound 213] | 2.73^[c]; |  | 100% | 2.76^[b] | 
COC(c1ccccc1Cl)C(C)NC(=O)c1cccnc1Cl (centres unmarked) [Compound 143] | 2.53^[c]; |  | 90% | 2.55^[b] | 
COC(c1ccc(Cl)cc1Cl)C(C)NC(=O)c1ccccc1Cl (centres unmarked) [Compound 30] |  |  | 100% |  | activity (efficacy: larval mortality) (Haemonchus contortus; 100 ppm): 100%
C=CCOC(CNC(=O)c1sccc1C)c1ccc(Cl)cc1 (centres unmarked) [Compound 2] |  |  |  |  | activity (efficacy: larval mortality) (Cooperia curticei; 20 ppm): 100%; activity (efficacy: larval mortality) (Haemonchus contortus; 20 ppm): 90%

Compound | log P [1, 2] | logP [1, 3] | nematicidal activity (percentage of gall formation) (Meloidogyne incognita) | log P [1, 4] | other results
COC(CNC(=O)c1sccc1Cl)c1ccc(Cl)cc1 (centres unmarked) [Compound 69] |  | 3.41^[b] |  |  | activity (efficacy: larval mortality) (Cooperia curticei; 100 ppm): 90%; logP [1, 5]: 3.39^[c];; activity (efficacy: larval mortality) (Haemonchus contortus; 100 ppm): 90%
C=CCOC(CNC(=O)c1cccnc1Cl)c1ccc(Cl)cc1 (centres unmarked) [Compound 8] |  |  |  |  | activity (efficacy: larval mortality) (Cooperia curticei; 20 ppm): 80%
COC(c1ccccc1Cl)C(C)NC(=O)c1c(F)cccc1C(F)(F)F (centres unmarked) [Compound 141] | 3.50^[c]; |  | 90% | 3.52^[b] | 
Cc1ccsc1C(=O)NCC(OCC1CC1)c1ccc(Cl)cc1 (centres unmarked) [Compound 6] |  |  |  |  | activity (efficacy: larval mortality) (Cooperia curticei; 100 ppm): 90%; logP [1, 6]: 3.87^[a]
COC(c1ccccc1Cl)C(C)NC(=O)c1cccnc1C(F)(F)F (centres unmarked) [Compound 209] | 3.24^[c]; |  |  | 3.27^[b] | activity (efficacy: larval mortality) (Cooperia curticei; 20 ppm): 90%
COC(c1ccc(Cl)cc1)C(C)NC(=O)c1ccccc1C(F)F (centres unmarked) [Compound 136] | 3.42^[c]; |  |  | 3.46^[b] | activity (efficacy: larval mortality) (Haemonchus contortus; 20 ppm): 80%
CCOC(c1ccc(Cl)cc1Cl)C(C)NC(=O)c1cccnc1C(F)F (centres unmarked) [Compound 105] |  | 3.57^[b] | 90% |  | 
COC(c1ccc(F)cc1)C(C)NC(=O)c1ccccc1Cl (centres unmarked) [Compound 191] | 2.95^[c]; |  | 90% | 3.02^[b] | 
COC(c1ccccc1Cl)C(C)NC(=O)c1ccccc1Br (centres unmarked) [Compound 142] | 3.31^[c]; |  | 90% | 3.34^[b] | 
COC(CNC(=O)c1ccoc1I)c1ccc(Cl)cc1 (centres unmarked) [Compound 71] |  | 2.92^[b] |  |  | logP [1, 5]: 2.90^[c];; activity (efficacy: larval mortality) (Haemonchus contortus; 100 ppm): 90%
COC(c1ccc(Cl)cc1)C(C)NC(=O)c1sccc1Cl (centres unmarked) [Compound 66] |  | 3.83^[b] |  |  | logP [1, 5]: 3.83^[c];; activity (efficacy: larval mortality) (Haemonchus contortus; 20 ppm): 90%
COC(c1ccc(Cl)cc1Cl)C(C)NC(=O)c1ccccc1C(F)(F)F (centres unmarked) [Compound 35] |  |  | 90% |  | logP [1, 6]: 3.90^[a]; activity (efficacy: larval mortality) (Haemonchus contortus; 100 ppm): 100%
CCOC(c1ccc(Cl)cc1Cl)C(C)NC(=O)c1cccnc1Cl (centres unmarked) [Compound 106] |  | 3.59^[b] | 90% |  | 
COC(c1ccc(Cl)cc1Cl)C(C)NC(=O)c1sccc1C (centres unmarked) [Compound 58] |  | 4.05^[b] |  |  | logP [1, 5]: 4.02^[c];; activity (efficacy: larval mortality) (Haemonchus contortus; 100 ppm): 80%
COC(CNC(=O)c1cn(C)nc1C(F)F)c1cc(Cl)cc(Cl)c1 (centres unmarked) [Compound 25] |  |  | 90% |  | 
COC(c1ccc(Cl)cc1Cl)C1(NC(=O)c2cccnc2Cl)CC1 (centres unmarked) [Compound 98] |  | 3.00^[b] |  |  | activity (efficacy: larval mortality) (Haemonchus contortus; 20 ppm): 80%
C#CCOC(CNC(=O)c1sccc1C)c1ccc(Cl)cc1 (centres unmarked) [Compound 1] |  |  |  |  | logP [1, 6]: 3.18^[a]; activity (efficacy: larval mortality) (Haemonchus contortus; 100 ppm): 80%
COC(c1ccccc1Cl)C(C)NC(=O)c1ccccc1C(F)F (centres unmarked) [Compound 140] | 3.39^[c]; |  | 90% | 3.42^[b] | 
